The values that follow are results of earlier work, collected in US9018178B2, “Method for the treatment of food, feed and agricultural products with a polyene antifungal compound” (DSM IP Assets B.V., priority 2007, dated 2015).

For this data set, the system named is common food spoilage yeasts and moulds. The note with it: most strains of common food spoilage yeasts and moulds.

For `C[C@@H]1C/C=C/C=C/C=C/C=C/[C@H](O[C@@H]2O[C@H](C)[C@@H](O)[C@H](N)[C@@H]2O)C[C@@H]2O[C@](O)(C[C@@H](O)C[C@H]3O[C@@H]3/C=C/C(=O)O1)C[C@H](O)[C@H]2C(=O)O` [natamycin], the “Concentrations inhibiting most strains” value was 1-15 ppm.
